Data as given in ChEMBL document CHEMBL1156829 (Proc Natl Acad Sci U S A, 2008).

Key:
[1] = NOVARTIS: Cytotoxicity against human hepatocellular carcinoma cell line (Huh7); assay type: toxicity, cell-based, Huh-7; conditions: Huh7 cells (hepatocellular carcinoma cell line)
[2] = tested on: Plasmodium falciparum; assay: NOVARTIS: Inhibition of Plasmodium falciparum W2 (drug-resistant) proliferation in erythrocyte-based infection assay; assay type: functional, organism-based; conditions: Plasmodium falciparum, W2; read-out: EC50
[3] = tested on: Plasmodium falciparum; assay: NOVARTIS: Inhibition of Plasmodium falciparum 3D7 (drug-susceptible) proliferation in erythrocyte-based infection assay; assay type: functional, organism-based; conditions: Plasmodium falciparum, 3D7

| SMILES | CC50 [1] [µM] | EC50 [2] [nM] | EC50 [3] [nM] |
| --- | --- | --- | --- |
| O=C(C[n+]1ccccc1)NN=Cc1ccc(Cl)c(Cl)c1 | > 100 | 3380 | 2840 |
| Oc1cccc2ccc(Nc3ccccn3)nc12 | 8.87 | 302 | 679 |
| COc1cccc2c1C(=O)C1C(O)=C3C(=C(O)C1C2=O)CC(O)(C(C)=NN=C1CC(C)(C)N(O)C(C)(C)C1)CC3OC1CC(C)(N)C(O)CO1 (stereo not given) | > 10 | 337 | 416 |
| CCOC(=O)c1c(NC(C)=O)sc2c1CCN(C(C)C)C2 | > 100 | 3410 | 1560 |
| CCCCCCn1c2c(c(=N)c3c1CCC3)CCCC2 | > 10 | 336 | 364 |
| NS(=O)(=O)c1ccc(CCNC(=O)C=Cc2ccc3c(c2)OCO3)cc1 | > 100 | 3390 | > 7760 |
| CC(=O)N1c2ccccc2C(C)(c2ccc(Br)cc2)CC1(C)C (stereo not given) | 71.4 | 2420 | 4270 |
| CC(C)C1=Nc2cc(C(N)=O)ccc2CN1C1CC1 | > 10 | > 338 | 30.8 |
| O=C(NCCCCNc1ccnc2cc(Cl)ccc12)c1ccc(Br)cc1 | > 8.73 | 291 | 218 |
| COc1ccc(OC)c(-c2ccc(C(=O)N3CCN(C/C=C/c4ccccc4)CC3)c(N(C)C)n2)c1 | > 10 | 333 | 922 |
| COc1ccccc1N1CCN(C2CCN(C3CCC(c4ccccc4)CC3)CC2)CC1 (stereo not given) | 20.2 | 670 | 293 |
| CC(C)NC(=O)[C@@H]1C[C@@H](NCc2cccnc2)CN1Cc1ccc2ccccc2c1 | > 100 | 3310 | > 10900 |
| O=C(Nc1ccc(Cl)c(Cl)c1)Nc1cc(C(=O)NCCCN2CCCCCC2)ccc1Cl | > 43 | 1420 | 791 |
| C=C1C=CN(Cc2ccccc2)c2ccc(OC)cc21 | > 10 | 330 | 451 |
| Cc1ccc(-n2c(SCc3cccc4ccccc34)nc3sc4c(c3c2=O)CCN(C)C4)cc1 | > 100 | 3300 | > 6520 |
| CC(C)(C)c1ccc(C(=O)Nc2ccc(NC(=O)c3ccc(-c4ccc([N+](=O)[O-])cc4)o3)cc2)cc1 | > 100 | 3300 | 1210 |
| CCCCC(=O)N(CCCC(C)Nc1cc(OC)cc2cccnc12)Cc1ccccc1OC (stereo not given) | 1.06 | 35 | 348 |
| CCOC(=O)c1c(NC(=O)c2ccc(S(=O)(=O)N(C)c3ccccc3)cc2)sc2c1CCN(C(=O)OCC)C2 | > 100 | > 3290 | > 10600 |
| CCN(CC)c1ccc(NCc2ccc3c(c2)OCO3)cc1 | 24.6 | 805 | 603 |
| c1cc2cc(CN3CCc4nc(N5CCCCC5)sc4C3)ccc2[nH]1 | > 10 | 326 | 410 |
| Cc1ccccc1NC(=S)NC(Cc1ccccc1)c1ccccc1 (stereo not given) | > 10 | 340 | 374 |
| Cc1ccccc1Nc1nc(NCc2ccco2)c2ccccc2n1 | 15.6 | 529 | 548 |
| Clc1cccc(CSc2nc(Nc3ccc4c(c3)OCO4)c3ccccc3n2)c1 | > 82.9 | 2790 | 1170 |
| COc1ccc(C(C)=NNc2nnc(C)c(O)n2)cc1 | 7.68 | 258 | 188 |
| O=C(Cc1ccccc1)NCCCCNc1ccnc2cc(Cl)ccc12 | > 9.6 | 316 | 330 |
| CCCCC(CC)C(=O)N(CCCC(C)Nc1cc(OC)cc2cccnc12)Cc1ccc(OC)c(OC)c1 (stereo not given) | > 10 | 328 | 442 |
| COCCN(C(C)C(=O)NC(CN1CCCC1)c1ccccc1)S(=O)(=O)c1c(C)noc1C (stereo not given) | > 11.9 | 406 | 964 |
| COc1ccc(NC(=O)C2=C(C)NC(=S)NC2c2ccc(O)cc2)cc1 (stereo not given) | > 10 | 342 | 1420 |

| SMILES | CC50 [1] [µM] | EC50 [2] [nM] | EC50 [3] [nM] |
| --- | --- | --- | --- |
| Cc1cccc(NC(=O)c2ccc(NCCCC3CCCCCC3)c([N+](=O)[O-])c2)c1 | 18.8 | 643 | 441 |
| COc1ccc2[nH]c3c(NCCN4CCCCC4)ncnc3c2c1 | 28.6 | 976 | 785 |
| N#Cc1cc(N2CC3CC(C2)c2cccc(=O)n2C3)c([N+](=O)[O-])cc1C#N (stereo not given) | > 100 | 3360 | > 12500 |
| CCCCCCCn1c2c(c(=N)c3c1CCC3)CCCC2 | 2.73 | 91.4 | 69.3 |
| Cc1nc(-c2nc3c(s2)CN(C(=O)CCc2cccnc2)CC3)cs1 | > 10 | 335 | 1090 |
| COC(=O)c1ccc(C=NNc2cc(C)nc3ccc(OC)cc23)cc1 | 16.5 | 537 | 204 |
| CCCCc1ccc(Nc2ncnc3sc4c(c23)CCCC4)cc1 | > 100 | 3390 | 11400 |
| COc1ccc(Nc2nc(N3CCCC3)c3ccccc3n2)cc1 | 10.2 | 334 | 284 |
| Cc1ccc(NC(=O)CSc2nc3cc(C(=O)NCCCOC(C)C)ccc3c(=O)n2Cc2ccco2)cc1Cl | > 10 | 340 | 1940 |
| CCN1CC=C(c2c[nH]c3ccccc23)CC1 | > 10 | 339 | 885 |
| CSC1=C(C#N)C(c2ccc(O)cc2)CC(=O)N1 (stereo not given) | > 100 | 3280 | > 9510 |
| CCC1CCCCN1C(=O)c1cc(-c2ccccc2OC)on1 (stereo not given) | > 10 | 340 | > 598 |
| CC(=NNC(=S)N(C)C)c1ccccn1 | > 10 | 338 | 311 |
| COc1ccc(-c2ncc([C@@H]3C[C@H]4CN(c5ccccc5)C(=O)[C@]45CCCN35)cn2)cc1 | 29.8 | 995 | 2260 |
| Cc1cccn2c(=O)c3cc(C(=O)NC4CCCC4)c(=N)n(CCc4ccccc4)c3nc12 | > 100 | 3290 | 2200 |
| COc1ccc(NC(=O)c2cc3cc(C4(O)CCN(CC5CC=CCC5)CC4)ccc3o2)cc1 (stereo not given) | 25.1 | 824 | 381 |
| O=C(OC(C(=O)NCc1ccco1)c1ccc(F)cc1)c1ccco1 (stereo not given) | > 10 | > 327 | > 1250 |
| O=C(NNc1cccc(F)n1)C(F)(F)F | > 10 | 340 | 670 |
| CC(=C(Cl)Cl)C(Br)=C(Br)CO | 50.9 | 1690 | 119 |
| Cn1c(NN=Cc2ccccc2)cc(=O)n(C)c1=O | > 10 | 325 | > 1250 |
| CCN1C(C(=O)c2ccccc2)=C(Nc2c(C)n(C)n(-c3ccccc3)c2=O)c2ccccc2S1(=O)=O | > 100 | 3310 | > 12500 |
| O=C(Nc1ccc(F)cc1)N1CCN(c2ccc3nnc(-c4ccccc4)n3n2)CC1 | > 100 | 3290 | > 12500 |
| COc1ccc(C2=C(c3ccc(OC)cc3)C3(c4ccccc4)C(=O)C2(c2ccccc2)C2C(=O)N(c4ccc(F)cc4)C(=O)C23)cc1 (stereo not given) | > 100 | 3350 | 2240 |
| CCOC(=O)c1c(CNc2ccncc2)n(C)c2cc(Br)c(O)cc12 | > 10 | 333 | 315 |
| O=C1N=C(N2CCOCC2)S/C1=C/c1cccc2ccccc12 | > 10 | 329 | > 1250 |
| Cc1ccc(NC(=O)N2CCN(C(=O)c3nc(-c4ccccc4)nc(C)c3C(=O)OC(C)C)CC2C)c(C)c1 (stereo not given) | > 10 | 336 | > 271 |
| Cc1cccc2cc(CNC34CC5CC(CC(C5)C3)C4)c(N3CCC(N4CCC(O)CC4)CC3)nc12 | 4.9 | 163 | 793 |
